Reference: patent US7504407B2, “Compounds specific to adenosine A1 and A3 receptors and uses thereof” (OSI Pharmaceuticals, Inc., priority 2001, dated 2009)

Assays:
[1] = biological target: T1, human A1 adenosine receptor (Homo sapiens, UniProt P30542); conditions: cited from earlier work
T1 sequence (P30542 1-326): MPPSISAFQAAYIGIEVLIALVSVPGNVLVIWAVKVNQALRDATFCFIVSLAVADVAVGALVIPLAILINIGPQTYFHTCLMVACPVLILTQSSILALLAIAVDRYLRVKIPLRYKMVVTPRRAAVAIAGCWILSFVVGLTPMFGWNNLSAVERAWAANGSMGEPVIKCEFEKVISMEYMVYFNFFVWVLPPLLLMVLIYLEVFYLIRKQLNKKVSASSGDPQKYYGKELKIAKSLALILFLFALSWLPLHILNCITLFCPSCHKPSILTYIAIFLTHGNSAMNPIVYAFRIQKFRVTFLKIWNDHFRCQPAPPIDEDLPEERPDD

[2] = biological target: T2, human A2a receptor subtype (Homo sapiens, UniProt P29274); assay: Adenosine 2a receptor subtype competition radioligand binding, [3H]CGS-21680, HEK293 membranes; conditions: @ 10 μM
T2 construct: expressed in transfected cells; host or cells: HEK-293 (Cadus clone #5)

[3] = biological target: T3, human A1 receptor subtype (Homo sapiens, UniProt P30542)
T3 sequence (P30542 1-326): T1 sequence (P30542 1-326)

[4] = biological target: T4, human A3 receptor subtype (Homo sapiens, UniProt P0DMS8); assay: Adenosine 3 receptor competition radioligand binding, [125I]AB-MECA, HEK293 membranes; conditions: for properties relative to compound 1720: A3 affinity, A3/A1 selectivity, solubility as in Table 3
T4 construct: expressed in transfected cells; host or cells: HEK293
T4 sequence (P0DMS8 1-318): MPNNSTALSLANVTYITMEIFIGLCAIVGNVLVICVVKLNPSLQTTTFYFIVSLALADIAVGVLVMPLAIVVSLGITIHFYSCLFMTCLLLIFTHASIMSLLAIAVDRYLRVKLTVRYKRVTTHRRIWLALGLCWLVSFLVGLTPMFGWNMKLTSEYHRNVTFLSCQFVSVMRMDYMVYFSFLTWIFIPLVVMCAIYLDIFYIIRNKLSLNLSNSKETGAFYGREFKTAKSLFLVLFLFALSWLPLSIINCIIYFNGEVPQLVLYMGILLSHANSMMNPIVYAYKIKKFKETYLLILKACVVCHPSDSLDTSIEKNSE

T2 sequence (P29274 whole entry): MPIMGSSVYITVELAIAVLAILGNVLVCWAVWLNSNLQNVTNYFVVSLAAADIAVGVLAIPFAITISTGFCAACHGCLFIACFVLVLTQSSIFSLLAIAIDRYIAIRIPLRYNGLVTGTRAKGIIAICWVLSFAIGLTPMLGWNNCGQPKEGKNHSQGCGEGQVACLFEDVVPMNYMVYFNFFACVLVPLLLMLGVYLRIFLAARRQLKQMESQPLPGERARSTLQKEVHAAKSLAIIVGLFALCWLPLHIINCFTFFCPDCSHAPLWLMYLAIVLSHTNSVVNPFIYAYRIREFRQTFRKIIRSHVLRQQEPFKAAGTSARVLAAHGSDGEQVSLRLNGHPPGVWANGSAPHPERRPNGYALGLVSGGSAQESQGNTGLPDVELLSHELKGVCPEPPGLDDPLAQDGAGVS

| SMILES | melting point | properties relative to compound 1720 [4] | Binding Affinity for A3 receptor relative to compound 1720 [4] | other results |
| --- | --- | --- | --- | --- |
| CC(Cc1ccccc1)Nc1ncnc2c1ncn2C1OC(CO)C(O)C1O (single isomer, unassigned; (-)) [R-PIA, (−)-N6-(2-phenylisopropyl)-adenosine] |  |  |  | reported affinity [1]: approximately 50 nM |
| CNC(=O)NCCCNc1nc(-c2ccccc2)nc2[nH]c(C)c(C)c12 [Compound 1310] |  |  |  | % activity A2a [2]: 76% |
| NC(=O)[C@@H]1C[C@@H](O)CN1c1nc(-c2ccccc2)nc2[nH]ccc12 [Compound 1631, (2S, 4R)-4-Hydroxy-1-(2-phenyl-7H-pyrrolo[2,3-d]pyrimidin-4-yl)-pyrrolidine-2-carboxylic acid amide methane sulfonate] |  |  |  | A1 receptor binding affinity relative to reference compounds 1318 or 1319 [3]: equaled or surpassed |
| Clc1cccc(-c2nc(NCCCn3ccnc3)c3cc[nH]c3n2)c1 [Compound 1723] | 183 to 185 °C |  |  |  |
| Cc1cc2c(NCCc3c[nH]cn3)nc(-c3cccc(Cl)c3)nc2[nH]1 [Compound 1731] |  | superior | Similar |  |
| c1ccc(-c2nc(N3CCc4nc[nH]c4C3)c3cc[nH]c3n2)cc1 [Compound 1733] |  | superior | Similar |  |

More lines, main results first:

| melting point | properties relative to compound 1720 [4] | Binding Affinity for A3 receptor relative to compound 1720 [4] | SMILES | other results |
| --- | --- | --- | --- | --- |
| 234 to 235 °C |  |  | c1ccc(-c2nc(NCCc3cnc[nH]3)c3cc[nH]c3n2)cc1 [Compound 1720, [2-(3H-Imidazol-4-yl)-ethyl]-(2-phenyl-7H-pyrrolo[2,3-d]pyrimidin-4-yl)-amine] | A3 receptor binding affinity relative to reference compound 1308 ([4]; relative to reference compound 1308): greater than 10 times |
|  | superior | Higher | Clc1cccc(-c2nc(NCCc3cnc[nH]3)c3cc[nH]c3n2)c1 [Compound 1721] |  |
| 199 to 200 °C |  |  | Clc1cccc(-c2nc(NCCc3ccccn3)c3cc[nH]c3n2)c1 [Compound 1722] |  |
